Patent publication US20240150334A1, “HSD17B13 INHIBITORS AND/OR DEGRADERS” (Pfizer Inc., priority 2022, published 2024)
Counter-ions that a name gives are not always drawn.

Legend:
HSD17B13 enzyme = HSD17B13 enzyme (Homo sapiens (Human), UniProt Q7Z5P4); experiment: hHSD17B13 IC50 Assay (FAC beta-estradiol), purified protein enzyme activity assay with NAD(P)H-Glo luciferase readout; format: biochemical; settings: geometric mean, 12 μM FAC beta-estradiol, 500 μM NAD+, read-out: hHSD17B13_IC50 GMean IC50
Protocol: The following protocols may of course be varied by those skilled in the art. hHSD17B13 IC50 Assay (FAC beta-estradiol)
HSD17B13 enzyme inhibition potency of test compounds was determined using a purified protein biochemical enzyme activity assay, using NAD(P)H-Glo luciferase readout (Promega). HSD17B13 enzyme uses the oxidized form of nicotinamide adenine dinucleotide (NAD+) as a cofactor during metabolism of Beta-Estradiol (substrate) to […], while converting NAD+ to the reduced form (NADH). The Promega NAD(P)H-Glo™ assay is a homogeneous bioluminescent assay that generates a light signal from biochemical reactions that contain NADH (or nicotinamide adenine dinucleotide phosphate, NADPH). In the presence of NADH (or NADPH), the enzyme Reductase reduces a proluciferin reductase substrate to form luciferin. Luciferin then is quantified using Ultra-Glo™ Recombinant Luciferase (rLuciferase), and the light signal produced is proportional to the amount of NAD(P)H in the sample. […] The reaction was initiated by the addition of 2 μL/well purified HSD17B13 protein (30 nM FAC in assay buffer). Compound, substrate mix and HSD17B13 protein was incubated in the dark at room temperature for 2 hours before the addition of 3 μL/well NAD(P)H-Glo detection reagent, prepared from luciferase detection reagent and reductase/reductase substrate, as per manufacturer's instructions (Promega, G9061). Detection reagent was incubated in the dark for 1 hour at room temperature before plates were read on the Envision plate reader (Perkin Elmer) using a luminescent protocol. Data expressed as relative luminescent units (RLUs) were then normalized to control wells using Activity Base (IDBS). Zero percent effect (ZPE) was defined as RLUs generated from uninhibited HSD17B13 protein (vehicle control).

wild type human HSD17B13 = wild type human HSD17B13 (Homo sapiens (Human), UniProt Q7Z5P4); experiment: HEK_Beta-Est LCMS_IC50_Tekcel, whole-cell HEK-HSD17B13 inhibition assay, estrone production by LCMS; format: cell-based; settings: geometric mean, HEK cells stably expressing wild type human HSD17B13, 25 μM FAC beta-estradiol, read-out: HEK_Beta-Est LCMS_IC50—Tekcel GMean IC50
Outline: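 HEK cells expressing wild-type human HSD17B13 were preincubated with compound for 1 hour at 37° C, then the beta-estradiol/NAD+ reaction ran for 2 hours at 37° C. Estrone formed was quantified by LCMS as product area ratio and normalized to uninhibited vehicle-control wells.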

Chain of wild type human HSD17B13 (Q7Z5P4 20-300): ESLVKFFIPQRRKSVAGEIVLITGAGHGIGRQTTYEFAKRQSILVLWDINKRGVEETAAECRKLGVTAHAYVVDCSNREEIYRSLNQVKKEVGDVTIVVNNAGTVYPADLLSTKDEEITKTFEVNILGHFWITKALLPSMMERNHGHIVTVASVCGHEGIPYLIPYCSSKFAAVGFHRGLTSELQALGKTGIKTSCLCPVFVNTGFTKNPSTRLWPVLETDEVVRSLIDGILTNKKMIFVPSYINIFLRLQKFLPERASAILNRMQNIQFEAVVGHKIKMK
Chain of HSD17B13 enzyme (Q7Z5P4 20-300): as above

Row | IC50 (HSD17B13 enzyme) [µM] | IC50 (wild type human HSD17B13) [µM] | Compound
1 | 0.031 | 0.27 | COc1ccc(-c2ccc3cn([C@H]4CC[C@H](CNC(=O)c5cc(F)c(O)c(F)c5)CC4)nc3c2)cc1 [Example 67, 3,5-difluoro-4-hydroxy-N-({(1r,4r)-4-[6-(4-methoxyphenyl)-2H-indazol-2-yl]cyclohexyl}methyl) benzamide]
2 | 0.025 | 0.28 | O=C(NC[C@H]1CC[C@H](n2cc3ccc(C(F)(F)F)cc3n2)CC1)c1cc(F)c(O)c(F)c1 [Example 137, 3,5-difluoro-4-hydroxy-N-({(1r,4r)-4-[6-(trifluoromethyl)-2H-indazol-2-yl]cyclohexyl}methyl) benzamide, ammonium salt]
3 | 0.01 | 0.4 | O=C(NC[C@H]1CC[C@H](n2cc3cc(Cl)ncc3n2)CC1)c1cc(F)c(O)c(F)c1 [Example 187, N-{[(1r,4r)-4-(5-chloro-2H-pyrazolo[3,4-c]pyridin-2-yl)cyclohexyl]methyl}-3,5-difluoro-4-hydroxybenzamide]
4 | 0.01 | 0.35 | Cn1cc(-c2cc3cn([C@H]4CC[C@H](CNC(=O)c5cc(F)c(O)c(F)c5)CC4)nc3cn2)cn1 [Example 200, 3,5-difluoro-4-hydroxy-N-({(1r,4r)-4-[5-(1-methyl-1H-pyrazol-4-yl)-2H-pyrazolo[3,4-c]pyridin-2-yl]cyclohexyl}methyl) benzamide]
5 | 0.013 | 0.16 | Cc1ncc(-c2ccc3cn([C@H]4CC[C@H](CNC(=O)c5cc(F)c(O)c(F)c5)CC4)nc3c2)cn1 [Example 77, 3,5-difluoro-4-hydroxy-N-({(1r,4r)-4-[6-(2-methylpyrimidin-5-yl)-2H-indazol-2-yl]cyclohexyl}methyl) benzamide]
6 | 0.0037 | 0.14 | O=C(NC[C@]12CC[C@](c3nc(-c4ccc(C(F)(F)F)nn4)no3)(CC1)CC2)c1cc(F)c(O)cc1F [Example 185, 2,5-difluoro-4-hydroxy-N-[(4-{3-[6-(trifluoromethyl)pyridazin-3-yl]-1,2,4-oxadiazol-5-yl}bicyclo[2.2.2]octan-1-yl)methyl]benzamide]
7 | 0.0078 | 0.27 | O=C(NC[C@H]1CC[C@H](n2cc3ccc(-c4ccccc4)cc3n2)CC1)c1cc(F)c(O)c(F)c1 [Example 68, 3,5-difluoro-4-hydroxy-N-{[(1r,4r)-4-(6-phenyl-2H-indazol-2-yl)cyclohexyl]methyl} benzamide]
8 | 0.013 | 0.18 | O=C(NC[C@]12CC[C@](c3nc(-c4ccc(C(F)(F)F)nn4)no3)(CC1)CC2)c1cc(F)c(O)c(F)c1 [Example 143, 3,5-difluoro-4-hydroxy-[(4-{3-[6-(trifluoromethyl)pyridazin-3-yl]-1,2,4-oxadiazol-5-yl}bicyclo[2.2.2]octan-1-yl)methyl]benzamide]
9 | 0.0057 | 0.25 | Cc1c(-c2ccc3cn([C@H]4CC[C@H](CNC(=O)c5cc(F)c(O)c(F)c5)CC4)nc3c2)cnn1C [Example 39, N-({(1r,4r)-4-[6-(1,5-dimethyl-1H-pyrazol-4-yl)-2H-indazol-2-yl]cyclohexyl}methyl)-3,5-difluoro-4-hydroxybenzamide]
10 | 0.039 | 0.47 | O=C(NC[C@H]1CC[C@H](c2nc(-c3ccc(C(F)(F)F)nc3)no2)CC1)c1cc(F)c(O)cc1F [Example 197, 2,5-difluoro-4-hydroxy-N-{[(1r,4r)-4-{3-[6-(trifluoromethyl)pyridin-3-yl]-1,2,4-oxadiazol-5-yl}cyclohexyl]methyl} benzamide]
11 | 0.0071 | 0.16 | COc1ccc(-c2noc([C@]34CC[C@](CNC(=O)c5cc(F)c(O)c(F)c5)(CC3)CC4)n2)nn1 [Example 124, 3,5-difluoro-4-hydroxy-N-({4-[3-(6-methoxypyridazin-3-yl)-1,2,4-oxadiazol-5-yl]bicyclo [2.2.2]octan-1-yl}methyl)benzamide]
12 | 0.01 | 0.14 | COc1cnc(-c2noc([C@]34CC[C@](CNC(=O)c5cc(F)c(O)c(F)c5)(CC3)CC4)n2)cn1 [Example 152, 3,5-difluoro-4-hydroxy-N-({4-[3-(5-methoxypyrazin-2-yl)-1,2,4-oxadiazol-5-yl]bicyclo[2.2.2]octan-1-yl}methyl)benzamide]
13 | 0.033 | 0.4 | COc1ccc2nn([C@H]3CC[C@H](CNC(=O)c4cc(F)c(O)c(F)c4)CC3)cc2c1 [Example 129, 3,5-difluoro-4-hydroxy-N-{[(1r,4r)-4-(5-methoxy-2H-indazol-2-yl)cyclohexyl]methyl}benzamide]
14 | 0.018 | 0.45 | O=C(NC[C@H]1CC[C@H](c2nc(-c3ccc(C(F)(F)F)cn3)no2)CC1)c1cc(F)c(O)c(F)c1F [Example 210, 2,3,5-trifluoro-4-hydroxy-N-{[(1r,4r)-4-{3-[5-(trifluoromethyl)pyridin-2-yl]-1,2,4-oxadiazol-5-yl}cyclohexyl]methyl}benzamide]
15 | 0.015 | 0.33 | Cc1cc(C)nc(-c2ccc3cn([C@H]4CC[C@H](CNC(=O)c5cc(F)c(O)c(F)c5)CC4)nc3c2)n1 [Example 52, N-({(1r,4r)-4-[6-(4,6-dimethylpyrimidin-2-yl)-2H-indazol-2-yl]cyclohexyl}methyl)-3,5-difluoro-4-hydroxybenzamide]
16 | 0.0058 | 0.094 | Cn1cc(-c2ccc3cn([C@H]4CC[C@H](CNC(=O)c5cc(F)c(O)c(F)c5)CC4)nc3c2)cn1 [Example 60, 3,5-difluoro-4-hydroxy-N-({(1r,4r)-4-[6-(1-methyl-1H-pyrazol-4-yl)-2H-indazol-2-yl]cyclohexyl}methyl) benzamide]
17 | > 2.5 | 0.072 | Cn1cc(-c2ccc3cn([C@H]4CC[C@H](CNC(=O)c5cc(F)c(O)c(F)c5F)CC4)nc3c2)cn1 [Example 5, 2,3,5-Trifluoro-4-hydroxy-N-({(1r,4r)-4-[6-(1-methyl-1H-pyrazol-4-yl)-2H-indazol-2-yl]cyclohexyl}methyl)benzamide, trifluoroacetate salt]
18 | 0.016 | 0.23 | O=C(NC[C@H]1CC[C@H](n2cc3cc(C(F)(F)F)ccc3n2)CC1)c1cc(F)c(O)c(F)c1 [Example 181, 3,5-difluoro-4-hydroxy-N-({(1r,4r)-4-[5-(trifluoromethyl)-2H-indazol-2-yl]cyclohexyl}methyl) benzamide]
19 | 0.015 | 0.48 | O=C(NC[C@H]1CC[C@H](N2Cc3cc(Cl)ccc3C2=O)CC1)c1cc(F)c(O)cc1F [Example 186, N-{[(1r,4r)-4-(5-chloro-1-oxo-1,3-dihydro-2H-isoindol-2-yl)cyclohexyl]methyl}-2,5-difluoro-4-hydroxybenzamide]
20 | 0.0087 | 0.17 | O=C(NC[C@H]1CC[C@H](n2cc3ccc(-c4cnccn4)cc3n2)CC1)c1cc(F)c(O)c(F)c1F [Example 28, 2,3,5-trifluoro-4-hydroxy-N-({(1r,4r)-4-[6-(pyrazin-2-yl)-2H-indazol-2-yl]cyclohexyl}methyl)benzamide]
21 | 0.021 | 0.44 | CN1CCn2ncc(-c3ccc4cn([C@H]5CC[C@H](CNC(=O)c6cc(F)c(O)c(F)c6)CC5)nc4c3)c21 [Example 41, 3,5-difluoro-4-hydroxy-N-({(1r,4r)-4-[6-(1-methyl-2,3-dihydro-1H-imidazo[1,2-b]pyrazol-7-yl)-2H-indazol-2-yl]cyclohexyl}methyl) benzamide]
22 | 0.019 | 0.21 | O=C(NC[C@H]1CC[C@H](n2cc3ccc(-c4ccccn4)cc3n2)CC1)c1cc(F)c(O)c(F)c1 [Example 75, 3,5-difluoro-4-hydroxy-N-({(1r,4r)-4-[6-(pyridin-2-yl)-2H-indazol-2-yl]cyclohexyl}methyl)benzamide]
23 | 0.012 | 0.34 | O=C(NC[C@]12CC[C@](c3nc(-c4ccc(C(F)(F)F)nc4)no3)(CC1)CC2)c1cc(F)c(O)c(F)c1F [Example 196, 2,3,5-trifluoro-4-hydroxy-N-[(4-{3-[6-(trifluoromethyl)pyridin-3-yl]-1,2,4-oxadiazol-5-yl}bicyclo[2.2.2]octan-1-yl)methyl]benzamide]

Row | Compound | IC50 (HSD17B13 enzyme) [µM] | IC50 (wild type human HSD17B13) [µM]
24 | O=C(NC[C@]12CC[C@](c3noc(-c4cccc(OS(=O)(=O)F)c4)n3)(CC1)CC2)c1cc(F)c(O)c(F)c1 [Example 190, 3-(3-{4-[(3,5-difluoro-4-hydroxybenzamido)methyl]bicyclo[2.2.2]octan-1-yl}-1,2,4-oxadiazol-5-yl) phenyl sulfurofluoridate] | 0.0086 | 0.42
